Experimental data taken from patent US6989364B1, “Methods for treating cardiac hypertrophy by administering IFN-γ” (Genentech, Inc., priority 1998, dated 2006).

Experiments:
[1] = test system: adult rat cardiac myocytes; assay: Inhibition of PGF2α-induced spreading response of adult myocytes; type: cell-based
Procedure: Myocytes were pre-incubated with saline vehicle or IFN-γ (500 U/ml) on day of isolation. A second addition of vehicle or IFN-γ was performed 24h after isolation, along with the addition of either vehicle or PGF2α (10^−7 M). After an additional 72 hr incubation, cells were fixed in glutaraldehyde, stained with eosin Y and viewed by fluorescence microscopy. A, B, C Cardiac myocytes after 4 days in culture: control, PGF2α, and PGF2α+IFN-γ, respectively. D, E, F Histographs showing maximum breadth of rod shaped cardiac myocytes versus percent frequency of breadth occurrence. The maximum breadth of rod-shaped cells was determined by fluorescence microscopy and imaging software. At least 200 rod shaped cells from a single experiment were examined per group.
Myocytes were pre-incubated with saline vehicle or IFN-γ on day of isolation. A second amount of IFN-γ was added 24 hr after isolation, along with the addition of either vehicle or PGF2α (10^−7 M). After an additional 72 hr incubation, cells were fixed in glutaraldehyde, stained with eosin Y and viewed under fluorescence. Quantitation of myocyte morphology: A control, B PGF2α, C PGF2α+IFN-γ (25 U/ml), D PGF2α+IFN-γ (100 U/ml), E PGF2α+IFN-γ (500 U/ml). Histographs showing maximum breadth of rod shaped cardiac myocytes versus percent frequency of breadth occurrence. The maximum breadth of rod-shaped cells was determined by fluorescence microscopy and imaging software. At least 200 rod shaped cells from a single experiment were examined per group.
In this assay, ventricular myocytes are isolated from a single (male Sprague-Dawley) rat, essentially following a modification of the procedure described in detail by Piper et al., “Adult ventricular rat heart muscle cells.” In: Cell Culture Techniques in Heart and Vessel Research, H. M. Piper, ed., Berlin: Spinger-Verlag, 1990, pp. 36–60. This procedure permits the isolation of adult ventricular myocytes and the long-term culture of these cells in the rod-shaped phenotype. […] Piper et al., supra; Lai et al., Am J. Physiol. 1996; 271 (Heart Circ. Phvsiol. 40):H2197–H2208. The inhibition of myocyte spreading induced by PGF2α, or PGF2α analogs, (e.g. fluprostenol) and phenylephrine by various potential inhibitors of cardiac hypertrophy is then tested. A detailed protocol is described in the examples that follow.
Adult myocyte cultures The procedure used for the isolation of ventricular myocytes from adult rats was a modification of a procedure described by Piper et al., supra, and is detailed in Lai et al., supra. For each myocyte preparation, one male Sprague-Dawley rat weighing about 250 g was anesthetized with pentobarbital sodium, and the heart was removed. Extraneous tissue was trimmed from the heart, and it was mounted onto a Langendorff system that was temperature controlled at 37° C. The heart was perfused with about 40 ml of Krebs buffer (110 mM NaCl, 2.6 mM KCl, 1.2 mM KH2PO4, 1.2 mM MgSO4.7H2O, 25 mM NaHCO3 and 11 mM glucose). A solution containing 30 mg of collagenase and 12.5 μl of 100 mM CaCl2 in 50 ml of Krebs buffer was then recirculated through the heart for 30 minutes. The heart was removed from the Langendorff apparatus, and the atria and connective tissues were removed. The ventricles were cut into 2 mm cubes with dissecting scissors, and further digested in a fresh collagenase solution (30 mg collagenase and 400 mg BSA dissolved in Krebs buffer with 12.5 μl of 100 mM CaCl2) for five minutes at 37° C. During the digestion, the tissue suspension was gently band shaken one time per minute. After the digestion, the supernatant was removed and saved, and the remaining tissue was further digested in fresh collagenase solution for an additional five minutes.

[2] = test system: left ventricle of male Sprague/Dawley (SD) rats; assay: Cardiac gene expression (real-time RT-PCR) in rats treated with fluprostenol and/or IFN-γ; type: in vivo, rat; conditions: normalized to GAPDH, FIG. 6
Text: FIGS. 6A–6D Bargraphs showing the effect of fluprostenol (FLUP) and IFN-γ on: A Skeletal actin (SKA); B Sarcoplasmic reticulum calcium ATPase (SRCA); C Collagen I (COL I); D Atrial natriuretic factor (ANF) expression. Expression levels are normalized to glyceraldehyde-3-phosphate dehydrogenase (GAPDH) message. VEH is vehicle. There were 7 animals per group and the data are presented as the mean±SEM. P<0.05 vs VEH group.
RNA preparation Total RNA was isolated using RNeasy Maxi Columns (Qïägen) according to the manufacturer's instructions.
RT-PCR Real-time RT-PCR (TaqMan) technology was used to compare the gene expression between the various treatment groups. An oligonucleotide probe containing a fluorescent reporter dye, […], at the 3′-end was designed to hybridize to the amplicon defined by two PCR primers. A 3′-blocking phosphate prevents extension of the probe. The reporter dye is released from the probe by the 5′ exonuclease activity of Taq polymerase during the extension phase of PCR reaction. […] The threshold cycle number (Ct), defined as the point where the reporter fluorescence reaches a value greater than 10 times the standard deviation of the baseline, is […] to the amount of amplicon produced from the sample. Since the fluorescence is detected during the exponential phase of the amplification, none of the reaction components are limiting. In each experiment, a control is analyzed that lacks the RNA template to monitor for contamination, and another control is included where the RT step is omitted to eliminate amplification of possible contaminating DNA as the source of the signal. Reactions are optimized to give the greatest fluorescence signal and smallest Ct by titration of magnesium and primer concentrations, and the product is run on an agarose gel to verify the presence of a single band at the predicted molecular weight. […]
Quantitation of the TaqMan results was performed as described by Heid et al., Genome Res. 6:986–994 (1996), with modifications. […]

[3] = test system: male Sprague/Dawley (SD) rats; assay: Cardiac hypertrophy induced by fluprostenol in vivo: body and organ weights; design: species or system rat
Text: This pharmacological model tests the ability of IFN-γ to inhibit cardiac hypertrophy induced in rats (e.g. male Wistar or Sprague-Dawley) by subcutaneous injection of fluprostenol (an agonist analog of PGF2α). It is known that rats with pathologic cardiac hypertrophy induced by myocardial infarction have chronically elevated levels of extractable PGF2α in their myocardium. Lai et al, Am. J. Physiol. (Heart Circ. Physiol.) 271:H2197–H2208 (1996). Accordingly, factors that can inhibit the effects of fluprostenol on myocardial growth in vivo are potentially useful for treating cardiac hypertrophy. The effects of IFN-γ on cardiac hypertrophy are determined by measuring the weight of heart, ventricles, and left ventricle (normalized by body weight) relative to fluprostenol-treated rats not receiving IFN-γ. A detailed description of this assay is provided in the examples.
Animals All experimental procedures conformed to the guiding principles of the American Physiology Society, and were approved by Genentech's Institutional Animal Care and Use Committee. The animals used in this study were male Sprague/Dawley (SD) rats (8 weeks of age, Charles River Breeding Laboratories, Inc.). The animals were acclimated to the facility for at least one week before experiments, fed a pelleted rat chow and water ad libitum, and housed in a light and temperature controlled room.
Administration of fluprostenol and/or IFN-γ Rats received subcutaneous injection of fluprostenol (Cayman Chemical, Ann Arbor, Mich.) at 0.15 mg/kg, recombinant mouse IFN-γ (Genentech, Inc., South San Francisco, Calif.) at 0.08 mg/kg, combination of fluprostenol and IFN-γ, or saline vehicle, twice a day for 14 days. In the IFN-γ and fluprostenol+IFN-γ groups, animals were pretreated with IFN-γ for one day. Body weight was measured before and after treatment. A previous study has shown that the dose of fluprostenol used here is the lowest dose which produces a significant cardiac hypertrophy in rats. Lai et al., supra.
Measurement of organ weights Under anesthesia with ketamine/xylazine, the heart, kidney, and spleen were removed, dissected and weighed. The left ventricle was stored at […] for evaluation of gene expression.
Statistical analyisis Results are expressed as mean±SEM. One way analysis of variance (ANOVA) was performed to assess differences in parameters between groups. Significant differences were then subjected to post hoc analysis using Newman-Keuls method; P<0.05 was considered significant.

[4] = test system: male Sprague/Dawley (SD) rats; conditions: s.c. twice a day; previous study, Lai et al.; cited from earlier work
[5] = test system: male Sprague/Dawley (SD) rats; assay: Hemodynamic assessment (MAP) in rats treated with fluprostenol and/or IFN-γ; type: in vivo, rat; conditions: conscious rats, 14 days of treatment (FIG. 5)
Procedure: Hemodynamic assessment Thirteen days after treatment, rats were anesthetized with intraperitoreal injection of ketamine 80 mg/kg (Aveco Co., Inc., Fort Dodge, Iowa) and xylazine 10 mg/kg (Rugby Laboratories, Inc., Rockville Center, N.Y.). A catheter (PE-10 fused with PE 50) filled with heparin-saline solution (50 U/ml) was implanted into the abdominal aorta, via the right femoral artery, for measurement of mean arterial pressure (MAP) and heart rate (HR). The catheter was exteriorized and fixed at the back of the neck.
One day after catheterization, the arterial catheter was connected to a Model CP 10 pressure transducer (Century Technology Company, Inglewood, Calif., USA) that was coupled to a Grass Model 7 polygraph (Grass Instruments, Quincy, Mass., USA). MAP and HR were measured simultaneously in conscious, unrestrained rats.

[6] = s.c. twice a day for 14 days, fluprostenol 0.15 mg/kg, IFN-γ 0.08 mg/kg, mean ± SEM

## TNF-α
[1]
  Ability of other cytokines to inhibit PGF2α induced myocyte spreading: could not inhibit the spreading response

## prostaglandin F2α [PGF2α]
[1]; 0.1 μM, P<0.001
  Spreading response of adult myocytes (maximum cell breadth) vs control cells: induced a significant change in the maximum cell breadth

## IL-1β: other cytokine tested for inhibition of the spreading response
[1]
  Ability of other cytokines to inhibit PGF2α induced myocyte spreading: could not inhibit the spreading response

## IL-6: other cytokine tested for inhibition of the spreading response
[1]
  Ability of other cytokines to inhibit PGF2α induced myocyte spreading: could not inhibit the spreading response

## IFN-α
[1]
  Ability of other cytokines to inhibit PGF2α induced myocyte spreading: could not inhibit the spreading response

## O=C(O)CCC/C=C\C[C@@H]1[C@@H](/C=C/[C@@H](O)COc2cccc(C(F)(F)F)c2)[C@H](O)C[C@@H]1O (racemic) [fluprostenol, reference compound]
[2]
  Abundance of mRNA for α-skeletal actin, collagen I, and natriuretic factor in the heart vs vehicle: increase in the abundance of mRNA
  mRNA for sarcoplasmic reticulum calcium ATPase in the heart vs vehicle: significantly reduced
[3]; 14 days, fluprostenol and IFN-γ alone vs vehicle, fluprostenol+IFN-γ vs fluprostenol group
  Ratio of heart, ventricular, and left ventricular weights to body weight (FIG. 4): significant increase
[3]; before treatment, mean ± SEM
  BWO, basal levels of body weight: 292.3 ± 2.2 g
[3]; [6]
  BW, body weight post treatment: 381.1 ± 4.4 g
  HW, heart weight: 1.000 ± .018 g
  KW, kidney weight: 1.397 ± .038 g
  KW/BW, kidney weight to body weight: 3.632 ± .076 g/kg
  LVW, left ventricular weight: .740 ± .013 g
  SW, spleen weight: .880 ± .048 g
  SW/BW, spleen weight to body weight: 2.309 ± .130 g/kg
  VW, ventricular weight: .957 ± .017 g
  ΔBW, BW-BWO: 91.9 ± 4.0 g
[4]
  Lowest dose which produces a significant cardiac hypertrophy in rats: 0.15 mg/kg
[5]
  Mean arterial pressure (MAP) compared to vehicle: significant decline

B1: IL-1α: other cytokine tested for inhibition of the spreading response (protein, UniProt P01583 113-271, looked up)
Interleukin-1 alpha: SAPFSFLSNVKYNFMRIIKYEFILNDALNQSIIRANDQYLTAAALHNLDEAVKFDMGAYKSSKDDAKITVILRISKTQLYVTAQDEDQPVLLKEMPEIPKTITGSETNLLFFWETHGTKNYFTSVAHPNLFIATKQDYWVCLAGGPPSITDFQILENQA
[1]
  Ability of other cytokines to inhibit PGF2α induced myocyte spreading: could not inhibit the spreading response
